Test: xn = mol fraction of the nth substance listed
Settings: for speed of sound: 100 kPa, Pulse-echo method; for speed of sound / viscosity / mass density: Liquid; for viscosity / mass density: 101 kPa; for viscosity: Concentric cylinders viscometry; for mass density: Vibrating tube method; for surface tension liquid-gas: 294.7 K, Drop volume

CC(CC(C)(C)C)CC(C)(C)CC(C)(C)C (configuration not stated) [2,2,4,4,6,8,8-heptamethylnonane] + CCCCCCCCCCCC
Settings	mass density [kg/m3]	speed of sound [m/s]	viscosity [mPa·s]
293.15 K, x1 = 0.103	753.263	1295.6	1.59
293.15 K, x1 = 0.1677	756.137	1294.1	1.67
293.15 K, x1 = 0.2944	761.09	1292	1.84
293.15 K, x1 = 0.4191	765.497	1290.5	2.03
293.15 K, x1 = 0.5011	768.604	1289.5	2.19
293.15 K, x1 = 0.5955	771.819	1288.5	2.4
293.15 K, x1 = 0.7585	777.128	1287.2	2.83
293.15 K, x1 = 0.8985	781.527	1286.3	3.29
293.15 K, x1 = 1	784.457	1285.7	3.7
303.15 K, x1 = 0.103	746.092	1257.5	1.32
303.15 K, x1 = 0.1677	749.065	1256.2	1.39
303.15 K, x1 = 0.2944	754.068	1254.3	1.53
303.15 K, x1 = 0.4191	758.54	1252.9	1.67
303.15 K, x1 = 0.5011	761.702	1252	1.8
303.15 K, x1 = 0.5955	764.964	1251	1.95
303.15 K, x1 = 0.7585	770.346	1249.8	2.28
303.15 K, x1 = 0.8985	774.79	1248.9	2.62
303.15 K, x1 = 1	777.761	1248.5	2.92
313.15 K, x1 = 0.103	738.895	1219.8	1.12
313.15 K, x1 = 0.1677	741.921	1218.7	1.17
313.15 K, x1 = 0.2944	747.011	1217	1.28
313.15 K, x1 = 0.4191	751.556	1215.7	1.4
313.15 K, x1 = 0.5011	754.77	1214.9	1.5
313.15 K, x1 = 0.5955	758.085	1214.1	1.63
313.15 K, x1 = 0.7585	763.538	1213	1.88
313.15 K, x1 = 0.8985	768.028	1212.2	2.14
313.15 K, x1 = 1	771.044	1211.8	2.37
323.15 K, x1 = 0.103	–	1182.8	0.966
323.15 K, x1 = 0.1677	–	1181.8	1.01
323.15 K, x1 = 0.2944	–	1180.3	1.1
323.15 K, x1 = 0.4191	–	1179.2	1.19
323.15 K, x1 = 0.5011	–	1178.5	1.27
323.15 K, x1 = 0.5955	–	1177.8	1.37
323.15 K, x1 = 0.7585	–	1176.8	1.57
323.15 K, x1 = 0.8985	–	1176.3	1.77
323.15 K, x1 = 1	–	1176	1.95

Settings	surface tension liquid-gas [mN/m]
x1 = 0.1677	24.8
x1 = 0.2944	24.9
x1 = 0.4191	24.6
x1 = 0.5011	24.6
x1 = 0.5955	24.3
x1 = 0.7585	24.2
x1 = 0.8985	24.2
x1 = 1	24

From the NIST ThermoML archive (doi:10.1021/je5000132)
